From US7557109B2, “Treatment for attention-deficit hyperactivity disorder” (priority 2001, dated 2009)

How the values were obtained:
C57BL/6J mice = test: Peak procedure (30 second reinforcement interval), C57BL/6J mice; assay type: in vivo
Protocol: (§1) The peak procedure is a behavioral model designed to assess an animal's ability to learn an appropriate time period in which to perform a task and a time period in which the animal will be rewarded if the task is performed. The model provides information concerning excitatory and inhibitory components of behavior, as subjects must respond to perform a task when appropriate and stop responding in an “empty trial” when time for reward has elapsed and the reward has not been delivered. The task is sensitive to conditions where there is a failure in inhibitory mechanisms, such as seems to be the case for ADHD (Pliszka et al., Biol. Psychiatry, 48:238-46, 2000).
In the peak procedure, mice are trained to work for food that is delivered at the same time in each trial, but withdrawn in some unreinforced trials. Typically, the response rate increases up to a maximum around the reinforcement time, and then decreases to a low toward the end of the trial. […] Accuracy is measured by looking at the shape of the response function; therefore, if the response function is sharper and centered on the reinforcement time it supports a conclusion that attentional processes have been heightened.
(§2) Mice were food deprived to 85-90% of their free-feeding body weight by supplementing food earned during experimental sessions with a measured amount after the session had ended. […]

[1] = test system: coloboma (Cm) mutant mice; assay type: in vivo
Excerpt: (§3) Heterozygote coloboma mice were originally purchased from The Jackson Laboratory (Bar Harbor, Me.) and were bred and maintained in our colony. In the current study, 20 mutant mice and 25 wild-type littermates, all aged 8 to 10 weeks, were used. Animals were divided into 4 groups: mutant/drug-treatment (n=11), mutant/vehicle-control (n=9), wild-type/drug-treatment (n=13), wild-type/vehicle-control (n=12). Age and gender were balanced among groups. All animals were housed as littermates (2-4 mice per cage) and were maintained on ad libitum food and water with a 12 hr light/dark cycle.
(§4) Open-field testing was performed under normal lighting conditions. Mice were brought into the experimental room and allowed at least 1 hr of acclimatization. Thirty minutes prior to testing, animals received an ip. injection of either d-amphetamine (4 mg/kg), eltoprazine (0.5 mg/kg) or saline. The mice were then placed in the activity monitor arenas (27×27×20 cm, Med Associates). Four animals of matching genotype and treatment were tested at one time. Each testing session lasted 40 minutes, after which animals were returned to their home cages. An automated infrared beam array system measured locomotor activity (total distance traveled) and number of center entries (zone crossings).

wild-type mice [2] = test: Open-field locomotor activity, wild-type littermates; assay type: in vivo
Excerpt: as §3, §4

wild-type mice [3] = test: DRL-36s schedule after FR5 conditioning, wild-type mice; assay type: in vivo
Protocol: (§5) Experiments were conducted in eight identical mouse operant chambers (16×14×13 cm) with stainless steel grid floors (ENV-307M; Med Associates Inc., Georgia, Vt., USA) housed in sound-insulating and ventilated cubicles. Each chamber was equipped with two ultra-sensitive retractable levers, one on each side of a food cup containing photocells to register nose poke behavior and in which a pellet dispenser delivered 20 mg food pellets (Formula A/I, P.J. Noyes Company Inc., Lancaster, N.H., USA). A red house light (50 lux) was located in the center of the wall opposite to the food cup and levers. Stimulus lights were located above each lever and above the food cup. Experimental sessions were controlled and data were recorded by a computer.
(§6) Mice trained on DRL procedure first received operant conditioning. DRL-36s task was adapted from procedures used in rats (O'Donnell and Seiden, supra). Briefly, mice first learned to respond for food under a DRL 6 sec schedule, which means that mice had to wait at least 6 seconds between successive lever presses in order to obtain a food reward. Subsequently the schedule requirement was increased every session in steps of 6 sec to 36 sec (DRL 36 sec). Each session started with the illumination of the house light, the stimulus light above the food cup and the presentation of the left lever for the duration of the session. […] If the mouse presses too soon, no reinforcement is given, the clock is reset to zero, and a new 36-sec waiting period starts. In this way, the DRL-36s schedule task primarily measures waiting strategies which reflect hyperactivity-impulsivity behaviors associated with ADHD. Animals were trained until performances on the DRL 36 sec schedule had stabilized (approximately 25 sessions). All training sessions lasted 60 min and were conducted 5 days per week from Monday-Friday. The total number of lever presses (responses), the total number of reinforcements, and the inter-response times (IRT) are recorded.
Data were analyzed as described elsewhere (Richards et al., J. Exp. Anal. Behav. 60:361-385, 1993; Sabol et al., Psychopharmacology 121:57-65, 1995). The inter-response time (IRT) analysis included three measures for the characterization of DRL 36 sec IRT distributions: peak area, peak location and burst ratio. Only peak area (PkA) and peak location (PkL) are presented. The PkA measure is the area of the obtained IRT distribution of a mouse above the corresponding negative exponential, a computation based on mean of obtained IRT durations excluding the burst component of IRT<3 sec (see Richards et al., supra, for details). […] Thus, decreases in PkA indicate that the mouse's IRT distribution becomes more similar to random performance indicating loss of schedule control. PkL is calculated as the median of the area of the obtained IRT distribution above the corresponding negative exponential.
Mice were conditioned and challenged on a DRL-36s schedule according to the methods of Example 7, with the following modifications. Because 1BKO mice had difficulty learning the DRL-36s schedule following conditioning on an FR1, wild-type and 1BKO mice were conditioned on a fixed rate 5 (FR5) schedule. In FR5, instead of pressing the lever once for a reward, animals have to press 5 times. The rationale for changing the operant conditioning was that by increasing the number of responses necessary for reinforcement, the wild-type mice should have greater difficulty and the 1BKO (which have higher response rates anyway) should have less difficulty getting reinforcements.

[4] = test system: 5-HT1B knockout (1BKO) mice; test: DRL-36s schedule after FR5 conditioning, 5-HT1B knockout mice; assay type: in vivo
Protocol: as §5, §6
Data were analyzed as described elsewhere (Richards et al., J. Exp. Anal. Behav. 60:361-385, 1993; Sabol et al., Psychopharmacology 121:57-65, 1995). The inter-response time (IRT) analysis included three measures for the characterization of DRL 36 sec IRT distributions: peak area, peak location and burst ratio. Only peak area (PkA) and peak location (PkL) are presented. The PkA measure is the area of the obtained IRT distribution of a mouse above the corresponding negative exponential, a computation based on mean of obtained IRT durations excluding the burst component of IRT<3 sec (see Richards et al., supra, for details). […] PkL is calculated as the median of the area of the obtained IRT distribution above the corresponding negative exponential. […]

Cm mutant mice = settings: Hess et al., 1996; cited from earlier work
[5] = test system: DA and 5-HT release in dorsal striatum; test: In vivo microdialysis of DA and 5-HT release in dorsal striatum, wild-type mice
Excerpt: (§7) Wild-type and 5-HT1B knock out mice were implanted with microdialysis probes according to the methods of DeGroote et al., incorporated herein by reference, with the following modifications. (DeGroote et al., Eur. J. Pharmacol., 439:93-100, 2002). The dialysis probe was placed in the dorsal striatum, at coordinates AP +0.80, ML −1.7 mm from bregma, DV −4.0 mm from the dura, according to the stereotaxic atlas of the mouse brain (Franklin and Paxinos, 1997), and with the toothbar set at 0 mm. Microdialysis experiments were begun 16-20 hours after surgery, using previously described methods, which are incorporated herein by reference (DeGroote et al., 2002). After the start of the dialysis probe perfusion, mice were left undisturbed for three hours. Mice were tested in their home cage during the light period. Samples were collected every 20 minutes in vials containing 7.5 μl acetic acid and stored at −80° C. until HPLC analysis.
Release of DA and 5-HT was measured after peripheral administration of eltoprazine or intrastriatal administration of the selective 5-HT1B receptor agonist CP 93129 dihydrochloride (1,4-Dihydro-3-(1,2,3,6-tetrahydro-4-pyridinyl)-5H-pyrrolo[3,2-b]pyridin-5-one, obtained from Tocris, UK.) Drugs were dissolved in distilled water and further diluted in Ringer solution to the final concentration on the day of the experiment. 5-HT and DA were analyzed by HPLC with electrochemical detection. Samples (25 μl) were injected onto an Inertsil ODS-3 column (3 μM, 2.1×100 mm, Aurora Borealis, The Netherlands) using a Gilson pump and autosampler (Separations, The Netherlands). Separation was performed at 40° C. with the electrochemical detector (Intro, ANTEC Leyden, The Netherlands) set at a potential of 600 mV against an Ag/AgCl reference electrode. The signal was analyzed using Gynkotek software. The mobile phase consisted of 5 g/l (NH4)2SO4, 150 mg/l heptane sulphonic acid sodium salt, 0.5 g/l EDTA, 5% methanol, 30 μl/l triethylamine, 30 μl/l acetic acid, pH 4.6. Flow rate was 0.3 ml/min. The detection limit for 5-HT was 0.5 fmol/25 μl sample (signal to noise ratio 2).
(§8) Values for the first four consecutive microdialysis samples were averaged to calculate the basal levels of extracellular 5-HT and DA, uncorrected for probe recovery. Student's t-tests were used to compare basal 5-HT and DA values between the two genotypes. Effects of drug treatment were analyzed by a repeated multivariate analysis of variance (ANOVA) with time as ‘within’ and treatment (or dose) and genotype as ‘between’ factors.

[6] = test system: DA and 5-HT release in dorsal striatum; test: In vivo microdialysis of DA and 5-HT release in dorsal striatum, 1BKO mice; set-up: species or system 5-HT1B knock out mice; settings: local administration
Excerpt: as §7
Release of DA and 5-HT was measured after peripheral administration of eltoprazine or intrastriatal administration of the selective 5-HT1B receptor agonist CP 93129 dihydrochloride (1,4-Dihydro-3-(1,2,3,6-tetrahydro-4-pyridinyl)-5H-pyrrolo[3,2-b]pyridin-5-one, obtained from Tocris, UK.) Drugs were dissolved in distilled water and further diluted in Ringer solution to the final concentration on the day of the experiment. 5-HT and DA were analyzed by HPLC with electrochemical detection. Samples (25 μl) were injected onto an Inertsil ODS-3 column (3 μM, 2.1×100 mm, Aurora Borealis, The Netherlands) using a Gilson pump and autosampler (Separations, The Netherlands). […] The signal was analyzed using Gynkotek software. […]
as §8, with “Student's t-tests were used to compare basal 5-HT and DA values between the two genotypes.” left out

C3H mice = test: Peak procedure (30 second reinforcement interval), C3H mice; assay type: in vivo; settings: 0.3 to 3.0 mg/kg i.p. (FIG. 8)
Protocol: as §1
In the peak procedure, mice are trained to work for food that is delivered at the same time in each trial, but withdrawn in some unreinforced trials. Typically, the response rate increases up to a maximum around the reinforcement time, and then decreases to a low toward the end of the trial. The shape of the response rate indicates whether the animal is sensitive to the time of reinforcement. To be able to perform well in this model, the animals need to be able to learn several tasks. First, the animal must make an association between a response (lever pressing, nose poking or key pecking) and the delivery of reward. Second, the animal must be able to perceive and remember time. Third, the animal must act on its remembered time by starting and then stopping or inhibiting the response. Fourth, the animal must be able to compare the elapsed time in the trials with its remembered time to reinforcement. […] Accuracy is measured by looking at the shape of the response function; therefore, if the response function is sharper and centered on the reinforcement time it supports a conclusion that attentional processes have been heightened.
as §2

C[C@H](N)Cc1ccccc1 [d-amphetamine]
relative response rate curve in peak trials (C57BL/6J mice; 4 mg/kg, 30 min before session (FIG. 1C)): does not peak as high as the lower dose and the curve is flatter
relative response rate curve in peak trials (C57BL/6J mice; 1 and 2 mg/kg, 30 min before session, relative to saline (FIGS. 1A, 1B)): higher peak in the curve followed by a rapid decrease
total distance traveled ([1]; 4 mg/kg i.p., 40 min session, saline 18386±6387 (FIG. 4)): 5966±1938 cm
total distance traveled (wild-type mice [2]; 4 mg/kg i.p., 40 min session, saline 3116±338 (FIG. 4)): 11657±2370 cm
response rate (wild-type mice [3]; 2 mg/kg i.p.): significantly increased response rate
response rate (wild-type mice [3]; 4 mg/kg i.p., wild-type vs 1BKO): significantly decreased response rate in wild-types compared to 1BKO mice
response rate (wild-type mice [3]; 8 mg/kg i.p.): decreased response rate
number of reinforcements (wild-type mice [3]; 2 and 8 mg/kg i.p. vs vehicle (FIG. 12A)): significantly decreased the number of reinforcements
number of reinforcements ([4]; 2, 4 or 8 mg/kg i.p. (FIG. 12A)): no significant effect on number of reinforcements
response rate ([4]; 2, 4 or 8 mg/kg i.p. (FIG. 12B)): not statistically significant at any dose
hyperactivity / locomotor activity in Cm mutant mice (Cm mutant mice): normalizes the hyperactivity

O=c1ccc2[nH]cc(C3=CCNCC3)c2[nH]1 [CP 93129, 1,4-Dihydro-3-(1,2,3,6-tetrahydro-4-pyridinyl)-5H-pyrrolo[3,2-b]pyridin-5-one, reference compound]
DA release ([5]; 0.5 μM, local administration): unaffected
time for 5-HT release to return toward basal levels after cessation ([5]; 0.5 μM, local administration): ≤ 40 min
5-HT level as compared to vehicle ([5]; 0.5 μM, local administration through probe): 51±9%
increase in DA levels ([5]; 50 μM, local administration, compared to vehicle): 525±79%
5-HT release ([6]; 0.5 μM): did not decrease 5-HT release
striatal release of DA ([6]; 0.5 μM): similarly unaffected
increase in DA levels ([6]; 50 μM, compared to vehicle): 527±67%

CCCOc1ccc2[nH]cc(C3=CCNCC3)c2n1 [CP 94253, reference compound]
timing in the peak procedure (C3H mice): no effect on timing in the peak procedure
distance traveled ([1]; 0.5 mg/kg (FIG. 7)): did not decrease significantly the distance traveled
locomotor activity (wild-type mice [2]; 0.5 mg/kg (FIG. 7)): no effect on the locomotor activity

COC(=O)C(c1ccccc1)C1CCCCN1 (stereo not shown) [methylphenidate]
hyperactivity / locomotor activity in Cm mutant mice (Cm mutant mice): increases locomotor activity in a dose-dependent manner
